Some test systems named below: SK-MEL-2; HCT-116; HL-60; UACC-62; SW-620; UO-31; TK-10; U-251; KM-20L2; SN12C; UACC-257; SK-MEL-28; SNB-75; ACHN; HOP-92; HCT-15; T47D; PC-3; MDA-N; MCF7.
Experiment in all cases: growth of human tumour cells (NCI), 48 h

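96-well plates; 48 h exposure; 5 concentrations. Endpoints by linear interpolation between flanking doses. Not reached: highest tested concentration assigned. Abbreviation: GI50, concentration required for 50% inhibition of growth.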 Activity calls are given as the source filed them. Cut-off read from the data, not from the text of the source: active = GI50 up to about 1.1 µM and inactive = higher. Some results are limits rather than exact numbers.

In the case of `CC(C)N(C(=O)C12C3C4C1C1C2C3C41C(=O)C(C)(C)C)C(C)C` (configuration not stated), the GI50 with SK-MEL-2 was > 100 µM (inactive); with HCT-116, 92.9 µM (inactive); in the assay with HL-60, 18.1 µM (inactive); in the assay on UACC-62, > 100 µM (inactive); in the assay with SW-620 it was 47.4 µM (inactive); with UO-31, 46.1 µM (inactive). The GI50 with TK-10 was > 100 µM (inactive); in the assay with U-251 it was > 100 µM (inactive); with KM-20L2 it was > 100 µM (inactive); with SN12C, > 100 µM (inactive); in the assay on UACC-257, 95.3 µM (inactive); in the assay on SK-MEL-28, > 100 µM (inactive). Moreover, the GI50 with SNB-75 and in the assay on ACHN was > 100 µM (inactive) throughout.
With `COc1ccc(Nc2nn3c(=O)c4c(C)c(C)sc4nc3s2)cc1`, the GI50 was 35.6 µM (inactive) in the assay on SK-MEL-2; 26.7 µM (inactive) in the assay with HCT-116; 97.5 µM (inactive) in the assay on HL-60; 71 µM (inactive) with UACC-62; 27.3 µM (inactive) with HOP-92; 44.7 µM in the assay on HCT-15. The GI50 was 25.7 µM (inactive) with T47D; 36.1 µM (inactive) in the assay on PC-3; 55.7 µM (inactive) in the assay on SW-620; 18 µM (inactive) in the assay with UO-31; 26.8 µM (inactive) with TK-10; 37.9 µM (inactive) with U-251. Moreover, the GI50 in the assay on MDA-N is 45.6 µM (inactive); in the assay on SN12C it was 33.5 µM (inactive); in the assay on UACC-257 it was 29.9 µM (inactive); with SK-MEL-28, 61.1 µM (inactive); in the assay with MCF7, 34.8 µM (inactive); in the assay on SNB-75 it was 22.7 µM (inactive). Moreover, the GI50 in the assay on ACHN was 41.4 µM (inactive).
Turning to `CC(=O)[C@H]1[C@H](O)C[C@@]2(C)[C@@H]3CCc4cc(O)c(OC5OC(CO)C(O)C(O)C5O)cc4C3(C)C(=O)C[C@]12C` (some centres not stated), the GI50 was > 100 µM (inactive) with SK-MEL-2; > 100 µM (inactive) in the assay on HCT-116; > 100 µM (inactive) in the assay with HL-60; > 100 µM (inactive) with UACC-62; > 100 µM (inactive) with HOP-92; greater than 100 µM in the assay on HCT-15. Besides, the GI50 in the assay with T47D, in the assay on PC-3, in the assay with SW-620, in the assay with UO-31, in the assay on TK-10 and in the assay with U-251 was > 100 µM (inactive) each time. Besides, the GI50 in the assay on MDA-N, in the assay on SN12C, in the assay on UACC-257, with SK-MEL-28, in the assay on MCF7 and in the assay with SNB-75 was > 100 µM (inactive) throughout. Also, the GI50 in the assay on ACHN is > 100 µM (inactive).
For the molecule `O=C(NNC(=S)Nc1ccc(Cl)cc1)C12CC3CC(CC(C3)C1)C2`, the GI50 with SK-MEL-2 was 14.3 µM (inactive); with HCT-116, 2.57 µM (inactive); with HL-60, 1.68 µM (inactive); in the assay with UACC-62, 3.88 µM (inactive); with HOP-92 it was 11.3 µM (inactive); with HCT-15 it was 3.18 µM. In addition, the GI50 was 4.59 µM (inactive) in the assay on T47D; 3.19 µM (inactive) with PC-3; 3.76 µM (inactive) with SW-620; 1.38 µM (inactive) in the assay on UO-31; 16.5 µM (inactive) in the assay with TK-10; 3.6 µM (inactive) with U-251. Further, the GI50 in the assay with MDA-N was 10.2 µM (inactive); with SN12C, 6.52 µM (inactive); in the assay with UACC-257, 6.15 µM (inactive); in the assay with SK-MEL-28, 14.8 µM (inactive); in the assay on MCF7 it was 3.37 µM (inactive); with SNB-75, 15.6 µM (inactive). Further, the GI50 with ACHN was 4.19 µM (inactive).
Take `Cc1ccc2c(c1)Nc1cc(C(F)(F)F)ccc1[PH]2=O` (configuration not stated): the GI50 is 31 µM (inactive) in the assay with SK-MEL-2; 42.2 µM (inactive) in the assay with HCT-116; 29.3 µM (inactive) in the assay on HL-60; 10.5 µM (inactive) with UACC-62; 14.2 µM (inactive) in the assay with HOP-92; 43.6 µM with HCT-15. Also, the GI50 in the assay on T47D is 27.6 µM (inactive); in the assay with PC-3, 21.7 µM (inactive); in the assay on SW-620, 23.4 µM (inactive); in the assay on UO-31, 0.225 µM (active); in the assay on TK-10 it was 57.9 µM (inactive); in the assay on U-251, 27.2 µM (inactive). Besides, the GI50 with MDA-N is 41.2 µM (inactive); in the assay on SN12C, 32.8 µM (inactive); in the assay with UACC-257, 28.2 µM (inactive); with SK-MEL-28 it was 78.5 µM (inactive); in the assay with MCF7, 9.59 µM (inactive); in the assay with SNB-75, 11.8 µM (inactive). The GI50 with ACHN was 16.6 µM (inactive).
In the case of `Cc1nc(O)c(O)c(CN2CCCCC2)n1`, the GI50 in the assay on SK-MEL-2 is > 100 µM (inactive); in the assay with HCT-116 it was > 100 µM (inactive); in the assay on HL-60, 42.7 µM (inactive); with UACC-62, > 100 µM (inactive); with HOP-92 it was > 100 µM (inactive); with HCT-15, greater than 100 µM. Also, the GI50 in the assay with T47D, in the assay with PC-3, with SW-620, in the assay with UO-31, with TK-10 and with U-251 was > 100 µM (inactive) throughout. Moreover, the GI50 in the assay on MDA-N, with SN12C, with UACC-257, in the assay with SK-MEL-28, with MCF7 and in the assay on SNB-75 was > 100 µM (inactive) in each case. In addition, in the assay on ACHN, the GI50 was > 100 µM (inactive).
`C=C1CC(Cn2ccc(=O)[nH]c2=O)(c2ccc(Cl)cc2)OC1=O` (configuration not stated): the GI50 with SK-MEL-2 is 5.65 µM (inactive); in the assay with HCT-116 it was 2.3 µM (inactive); in the assay with HL-60 it was 8.47 µM (inactive); in the assay on UACC-62, 5.15 µM (inactive); with HOP-92 it was 2.07 µM (inactive); in the assay on HCT-15, 2.45 µM. Further, the GI50 with T47D is 3.03 µM (inactive); in the assay with PC-3 it was 6.64 µM (inactive); in the assay with SW-620 it was 1.83 µM (inactive); in the assay on UO-31, 18 µM (inactive); in the assay on TK-10, 1.57 µM (inactive); with U-251, 17.7 µM (inactive). Moreover, the GI50 was 4.58 µM (inactive) in the assay on MDA-N; 11.6 µM (inactive) with SN12C; 3.58 µM (inactive) in the assay with UACC-257; 4.3 µM (inactive) in the assay with SK-MEL-28; 1.87 µM (inactive) with MCF7; 15.1 µM (inactive) in the assay with SNB-75. Moreover, the GI50 in the assay with ACHN is 5.15 µM (inactive).
As to `C/C(=N/NC(N)=S)c1ccc[nH]1`, the GI50 is > 100 µM (inactive) in the assay with SK-MEL-2; > 100 µM (inactive) in the assay with HCT-116; > 100 µM (inactive) in the assay on HL-60; > 100 µM (inactive) in the assay with UACC-62; > 100 µM (inactive) with HOP-92; greater than 100 µM in the assay on HCT-15. In addition, the GI50 in the assay on T47D was 84.3 µM (inactive); in the assay on PC-3, > 100 µM (inactive); in the assay with SW-620 it was > 100 µM (inactive); with UO-31, > 100 µM (inactive); in the assay with TK-10, > 100 µM (inactive); in the assay on U-251, > 100 µM (inactive). The GI50 with MDA-N, in the assay on SN12C, in the assay with UACC-257, with SK-MEL-28, in the assay with MCF7 and in the assay on SNB-75 was > 100 µM (inactive) each time. Also, the GI50 with ACHN is > 100 µM (inactive).
